Test results: the CheMixHub ionic liquid set
Values joined by “and” are separate entries in the source; they are usually repeats but may differ in a detail not shown here. Identical values can stand only once.

Test: xn = mol fraction of the nth substance listed

NCCOCCO + O + CCCC[n+]1ccn(C)c1.O=S(=O)([O-])C(F)(F)F
viscosity [mPa·s], 101 kPa
Details	293.15 K	298.15 K	303.15 K	308.15 K	313.15 K	318.15 K	323.15 K	328.15 K	333.15 K
x1 = 0.182, x2 = 0.8049	11.31	9.2	7.59	6.34	5.37	4.581	3.959	3.457	3.052
x1 = 0.2233, x2 = 0.7322	15.97	12.84	10.48	8.66	7.252	6.139	5.248	4.534	3.956
x1 = 0.4053, x2 = 0.4752	28.79	22.55	17.99	14.6	12.01	10.05	8.52	7.25	6.179

CCCC[n+]1ccn(C)c1.O=[N+]([O-])[O-] + CCCC[n+]1ccn(C)c1.[Cl-]
Details	viscosity [mPa·s]
293 K, 101 kPa, x2 = 0.2549	223

CCOS(=O)(=O)[O-].CC[n+]1ccn(C)c1 + OCC(O)CO
100 kPa
Details	electrical conductivity [S/m]	viscosity [mPa·s]
298.15 K, x1 = 0.002	0.000368	–
298.15 K, x1 = 0.004	0.00065	–
298.15 K, x1 = 0.012	0.00204	–
298.15 K, x2 = 0.123	0.396	89.1
298.15 K, x2 = 0.601	0.248	91.5
298.15 K, x2 = 0.98	0.00333	–
303.15 K, x2 = 0.264	–	65
303.15 K, x2 = 0.5	–	63.7
303.15 K, x2 = 0.98	–	494
313.15 K, x1 = 0.002	0.00114	279.6
313.15 K, x1 = 0.004	0.002	274.6
313.15 K, x2 = 0.958	0.0222	199

[Cl-].c1c[nH+]c[nH]1 + OCC(O)CO
100 kPa
Details	viscosity [mPa·s]
313.2 K, x1 = 0.1667	306
313.2 K, x1 = 0.3333	154.5
323.2 K, x1 = 0.25	107
323.2 K, x1 = 0.3333	84
333.2 K, x1 = 0.5	100.1
343.2 K, x1 = 0.5	50.6

CC(O)C(=O)[O-].CCC[N+]1(C)CCN(C)CC1 + CC#N
298 K, 101 kPa
Details	electrical conductivity [S/m]
x2 = 0.824	1.63
x2 = 0.848	1.79
x2 = 0.879	1.94

CCCC[n+]1ccn(C)c1.O=[N+]([O-])[O-] + CCCO
101 kPa
Details	viscosity [mPa·s]
288.15 K, x2 = 0.121	176
288.15 K, x2 = 0.471	34.53
293.15 K, x2 = 0.673	11.32
298.15 K, x2 = 0.673	9.79
308.15 K, x2 = 0.471	16.82
313.15 K, x2 = 0.364	21.01
318.15 K, x2 = 0.471	12.54
318.15 K, x2 = 0.554	9.21
323.15 K, x2 = 0.121	31.91
323.15 K, x2 = 0.471	10.97
328.15 K, x2 = 0.471	9.68
328.15 K, x2 = 0.755	3.24
328.15 K, x2 = 0.857	2.14
333.15 K, x2 = 0.554	6.37

OC[C@H]1O[C@@H](O[C@H]2[C@H](O)[C@@H](O)[C@@H](O)O[C@@H]2CO)[C@H](O)[C@@H](O)[C@H]1O + CCCC[N+](C)(CCCC)CCCC.[Cl-] + O
viscosity, 100 kPa
Details	293.15 K	298.15 K	303.15 K	308.15 K	313.15 K
x1 = 0.0003513, x2 = 0	1.018 mPa·s	0.904 mPa·s	0.804 mPa·s	0.725 mPa·s	0.658 mPa·s
x1 = 0.0003543, x2 = 0.000702	1.043 mPa·s	0.929 mPa·s	0.828 mPa·s	0.745 mPa·s	0.679 mPa·s
x1 = 0.0003546, x2 = 0.0003601	1.027 mPa·s	0.917 mPa·s	0.819 mPa·s	0.735 mPa·s	0.667 mPa·s
x1 = 0.0003558, x2 = 0.001062	1.057 mPa·s	0.948 mPa·s	0.843 mPa·s	0.757 mPa·s	0.696 mPa·s
x1 = 0.0003573, x2 = 0.001421	1.069 mPa·s	0.961 mPa·s	0.856 mPa·s	0.77 mPa·s	0.706 mPa·s
x1 = 0.0007059, x2 = 0	1.038 mPa·s	0.919 mPa·s	0.812 mPa·s	0.731 mPa·s	0.662 mPa·s
x1 = 0.000709, x2 = 0.00036	1.049 mPa·s	0.937 mPa·s	0.834 mPa·s	0.747 mPa·s	0.673 mPa·s
x1 = 0.0007119, x2 = 0.0007018	1.067 mPa·s	0.948 mPa·s	0.843 mPa·s	0.758 mPa·s	0.689 mPa·s
x1 = 0.0007149, x2 = 0.001061	1.081 mPa·s	0.969 mPa·s	0.86 mPa·s	0.771 mPa·s	0.708 mPa·s
x1 = 0.000718, x2 = 0.001421	1.094 mPa·s	0.984 mPa·s	0.876 mPa·s	0.785 mPa·s	0.72 mPa·s
x1 = 0.001058, x2 = 0	1.059 mPa·s	0.936 mPa·s	0.827 mPa·s	0.741 mPa·s	0.671 mPa·s
x1 = 0.001063, x2 = 0.0003599	1.07 mPa·s	0.952 mPa·s	0.848 mPa·s	0.758 mPa·s	0.681 mPa·s
x1 = 0.001067, x2 = 0.0007015	1.088 mPa·s	0.966 mPa·s	0.857 mPa·s	0.77 mPa·s	0.698 mPa·s
x1 = 0.001072, x2 = 0.001061	1.106 mPa·s	0.989 mPa·s	0.877 mPa·s	0.785 mPa·s	0.72 mPa·s
x1 = 0.001077, x2 = 0.00142	1.118 mPa·s	1.003 mPa·s	0.891 mPa·s	0.799 mPa·s	0.733 mPa·s
x1 = 0.001413, x2 = 0	1.079 mPa·s	0.955 mPa·s	0.843 mPa·s	0.752 mPa·s	0.68 mPa·s
x1 = 0.001419, x2 = 0.0003598	1.093 mPa·s	0.971 mPa·s	0.86 mPa·s	0.77 mPa·s	0.694 mPa·s
x1 = 0.001425, x2 = 0.0007013	1.11 mPa·s	0.986 mPa·s	0.872 mPa·s	0.784 mPa·s	0.709 mPa·s
x1 = 0.001431, x2 = 0.001061	1.127 mPa·s	1.006 mPa·s	0.893 mPa·s	0.8 mPa·s	0.734 mPa·s
x1 = 0.001437, x2 = 0.00142	–	1.14 mPa·s	1.02 mPa·s	0.909 mPa·s	0.747 mPa·s and 0.816 mPa·s
x1 = 0.001765, x2 = 0	1.097 mPa·s	0.971 mPa·s	0.858 mPa·s	0.764 mPa·s	0.689 mPa·s
x1 = 0.001774, x2 = 0.0003596	1.118 mPa·s	0.987 mPa·s	0.879 mPa·s	0.783 mPa·s	0.705 mPa·s
x1 = 0.00178, x2 = 0.000701	1.133 mPa·s	1.003 mPa·s	0.889 mPa·s	0.797 mPa·s	0.719 mPa·s
x1 = 0.001787, x2 = 0.00106	1.15 mPa·s	1.024 mPa·s	0.909 mPa·s	0.814 mPa·s	0.745 mPa·s
x1 = 0.001795, x2 = 0.001419	–	1.164 mPa·s	1.038 mPa·s	0.923 mPa·s	0.76 mPa·s and 0.829 mPa·s

CC(=O)[O-].CN1CCCN2CCC[NH+]=C12 + O
101.3 kPa
Details	viscosity [mPa·s]
278.2 K, x1 = 0.405	1800
283.2 K, x1 = 0.103	33
283.2 K, x1 = 0.206	204
283.2 K, x1 = 0.494	1496
283.2 K, x1 = 0.604	1825
293.2 K, x1 = 0.405	378
298.2 K, x1 = 0.301	144.9
298.2 K, x1 = 0.494	339.1
303.2 K, x1 = 0.301	99.8
303.2 K, x1 = 0.604	259.2
308.2 K, x1 = 0.206	32.5
308.2 K, x1 = 0.301	70.9
313.2 K, x1 = 0.301	51.8
313.2 K, x1 = 0.494	109
318.2 K, x1 = 0.301	39.02
318.2 K, x1 = 0.494	79.4
323.2 K, x1 = 0.604	66.33
333.2 K, x1 = 0.206	10.12
338.2 K, x1 = 0.494	28.19
343.2 K, x1 = 0.103	2.76
353.2 K, x1 = 0.301	8.98
358.2 K, x1 = 0.103	1.97
358.2 K, x1 = 0.206	4.58
358.2 K, x1 = 0.604	14.29
363.2 K, x1 = 0.604	12.16
368.2 K, x1 = 0.103	1.62
368.2 K, x1 = 0.604	10.46
373.2 K, x1 = 0.103	1.5
373.2 K, x1 = 0.301	5.14
373.2 K, x1 = 0.604	9.11

CCCC[n+]1ccn(C)c1.O=[N+]([O-])[O-] + CCCCO
101 kPa
Details	viscosity [mPa·s]
283.15 K, x2 = 0.456	47.92
288.15 K, x2 = 0.26	94.8
288.15 K, x2 = 0.565	23.86
293.15 K, x2 = 0.565	19.88
293.15 K, x2 = 0.848	5.88
298.15 K, x2 = 0.129	97
298.15 K, x2 = 0.456	25.72
298.15 K, x2 = 0.565	16.79
303.15 K, x2 = 0.26	43.31
303.15 K, x2 = 0.565	14.34
308.15 K, x2 = 0.129	56.32
308.15 K, x2 = 0.26	35.31
308.15 K, x2 = 0.65	8.91
308.15 K, x2 = 0.753	5.59
313.15 K, x2 = 0.361	21.55
313.15 K, x2 = 0.565	10.76
313.15 K, x2 = 0.65	7.8
313.15 K, x2 = 0.753	4.91
318.15 K, x2 = 0.26	24.53
318.15 K, x2 = 0.565	9.44
323.15 K, x2 = 0.361	15.85
323.15 K, x2 = 0.753	3.92
333.15 K, x2 = 0.361	12.03
333.15 K, x2 = 0.565	6.56

CCCCCC[n+]1ccn(C)c1.O=[N+]([O-])[O-] + CCCCCCCO
Details	viscosity [mPa·s]
293.15 K, 100 kPa, x1 = 0.4392	100.5

CCOS(=O)(=O)[O-].CC[n+]1ccn(C)c1 + CC(=O)c1ccccc1
100 kPa, x2 = 0
Details	viscosity [mPa·s]
313.15 K	40
333.15 K	20.4

CCOS(=O)(=O)[O-].CC[n+]1ccn(C)c1 + CC[n+]1ccn(C)c1.O=S(=O)([N-]S(=O)(=O)C(F)(F)F)C(F)(F)F
Details	viscosity [mPa·s]
298.15 K, 100 kPa, x2 = 0	100.6

O=C(O)CCl + CCCC[N+](CCCC)(CCCC)CCCC.O=S(=O)([O-])O
100 kPa
Details	electrical conductivity, 303.15 K [S/m]	electrical conductivity, 308.15 K [S/m]	electrical conductivity, 313.15 K [S/m]	electrical conductivity, 333.15 K [S/m]	viscosity, 313.15 K [mPa·s]	viscosity, 333.15 K [mPa·s]
x2 = 0.333	0.027	0.0376	–	–	–	–
x2 = 0.5	–	–	0.01	0.0382	1123	294.2
